In US9403840B2, “(Poly) aminoacetamide derivatives of epipodophyllotoxin their process of preparation and their applications in therapeutics as anticancer agents” (PIERRE FABRE MEDICAMENT, priority 2004, dated 2016):
Converted amounts (≈) assume the structure as drawn. “And” between values parts separate entries of the source, which are not always exact repeats. Identical values can stand only once. Counter-ions that a name gives are not always drawn.

Key:
[1] = test system: DNA in A549 cells; test: Comets test for detection of breakages of the DNA in cellulo; assay type: cell-based, human; conditions: 1 hour with 10 μM compound
Protocol: b) Test for Detection of Breakages of the DNA in Cellulo:
The comets test is used. The breakages of the DNA are detected in the A549 cells after incubating for 1 hour with 10 μM of each of the test compounds. […] For each compound, twenty-five cells are analysed and the mean Tail Moment (TM) is calculated using Komet software (Kinetic Imaging, UK).

[2] = test system: P388 murine leukaemia; test: P388 experimental tumour model (survival); assay type: in vivo, mouse; conditions: CD2F1 mice, P388 i.v. day 0, single intraperitoneal injection day 1; optimum dose (mg/kg) in brackets
Protocol: (§1) The model used is P388 murine leukaemia (Tumor Models in Cancer Research., Teicher, B. A. ed., Humana Press Inc., Totowa, N.J., pp. 23-40, 2002), which is maintained by successive intraperitoneal transplantations in DBA/2 mice (DBA/2JIco, Charles River), as was described in prior art documents (Classic in vivo cancer models: Three examples of mouse models used in experimental therapeutics. Current Protocols in Pharmacology Unit 5.24: 5.24.1-5.24.16, 2001).
The experiment is carried out according to a protocol already described in prior art documents (Cancer Chemother. Pharmacol., 1998, 41, 437-447). This consists in implanting 10^6 cells of P388 leukaemia per mouse into C2DF1 hybrid mice (CD2F1/CrlBR, Charles River, St Aubin-les-Elbeuf, France) intravenously on day zero. After randomizing the animals in the treatment and control cages, the compounds to be evaluated are administered in a single injection intraperitoneally the day after the tumour graft, on day 1. The animals are subsequently monitored every day, weighed twice weekly and any clinical reaction is recorded. The survival is the parameter for evaluation of the antitumour activity. The increase in survival is defined by the T/Csurvival ratio (%), corresponding to: (Median of survival of the treated group/Median of survival of the control group)×100. A T/Csurvival ratio is calculated for each dose administered and the greatest value obtained represents the maximum increase in survival achieved (maximum activity), which is defined by the optimum T/Csurvival ratio. The results are illustrated in Table II, in which the optimum T/Csurvival values appear. […] Specifically, according to the criteria of the NCI (National Cancer Institute), a T/Csurvival value is regarded as significant if it is at least greater than 120% (Semin. Oncol., 1981, 8, 349-361). The relative loss in body weight of the animals, associated with the optimum activity of the compounds, is much less than the toxicity threshold, according to the criteria of the NCI (Ann. Oncol., 1994, 5, 415-422).

[3] = test system: cells of the A549 human line (non-small-cell lung cancer); test: Cytotoxicity test: inhibition of growth of A549 cells (ATP-Lite luminescence); assay type: cell-based; conditions: 48 hours incubation
Protocol: The test used is the inhibition of growth of cells of the A549 human line (non-small-cell lung cancer):
The A549 tumour cells are seeded in a 96-well plate in RPMI 1640 medium without phenol red (Seromed) to which 5% of foetal calf serum is added (100 μl/well, 125×10^4 cells/ml). After incubating at 37° C. for 24 hours in an incubator comprising 5% CO2, the medium is replaced with that comprising the test compound, after which the plates are incubated for an additional 48 hours. Cell survival is evaluated by measuring the luminescence after release of ATP into the medium using the cell lysis, luciferase and luciferin solutions present in the ATP-Lite-M™ kit as is recommended by the manufacturer (Packard, Rungis, France). Each experimental condition was tested at least three times as six identical copies. The results, expressed as IC50 (M), are collated in Table I and show the cytotoxicity of the compounds.

[4] = Solubility in water of the hydrochloride; assay type: physicochemical; conditions: water-soluble hydrochloride
Text: The compounds of the present invention have a solubility in water which makes possible a form of administration by infusion, by injection or by the oral route. They are provided in the form of their water-soluble hydrochloride, the solubility values of which are collated in Table II.

[5] = test system: MX-1 human mammary carcinoma; test: MX-1 experimental tumour model (tumour volume); assay type: in vivo, mouse
Text: The model used is a human mammary carcinoma (Developmental Therapeutics Program, Division of Cancer Treatment, National Cancer Institute, In vivo Cancer Models 1976-1982. NIH Publication No. 84 2635, Washington D.C.: United States Government Printing Office, 1984), which is maintained by successive subcutaneous transplantations in Swiss Nude mice (Ico: Swiss-nu/nu, Iffa Credo, L'Arbresle, France), as was described above (Classic in vivo cancer models: Three examples of mouse models used in experimental therapeutics. Current Protocols in Pharmacology Unit 5.24: 5.24.1-5.24.16, 2001).
The experiment is carried out according to a protocol already described above (Cancer Chemother. Pharmacol., 1998, 41, 437-447). […] After randomizing the animals in their treatment and control cages, the compounds to be evaluated are administered intraperitoneally on day 7, 9, 11, 14, 16 and 18 after the grafting of the tumour. The animals are subsequently monitored every day, weighed twice weekly and any clinical reaction is recorded. The size of the tumour is measured three times weekly during the experiment. The tumour volume is calculated and the activity of the compounds on the size of the tumour is defined by the T/Cvolume ratio (%), corresponding to (Median tumour volume of the treated group/Median tumour volume of the control group)×100.

[6] = test system: B16 melanoma; test: B16 experimental tumour model (tumour volume); assay type: in vivo, mouse; conditions: C57BL/6 mice, s.c. B16, intraperitoneal on days 3, 5, 7 and 10; dose (mg/kg) in brackets
Protocol: as §1, with “the B16 melanoma” for “P388 murine leukaemia”, “subcutaneous” for “intraperitoneal”, “C57BL/6” for “DBA/2”, “(C57BL/6 NCrlBR,” for “(DBA/2JIco,”, “River, St Aubin-les-Elbeuf, France),” for “River),”, “above” for “in prior art documents”
The experiment is carried out according to a protocol already described above. B16 tumour tissue is ground and homogenized in a 0.9% sterile sodium chloride solution using a Dounce homogenizer and then C57BLJ6 mice are inoculated subcutaneously into the flank with 0.5 ml of this 1 g/ml preparation on day zero. After randomizing the animals in the treatment and control cages, the compounds to be evaluated are administered intraperitoneally on days 3, 5, 7 and 10 after the grafting of the tumour. The animals are subsequently monitored every day, weighed twice weekly and any clinical reaction is recorded. The size of the tumour is measured three times weekly during the experiment. The tumour volume is calculated and the activity of the compounds on the size of the tumour is defined by the T/Cvolume ratio (%), corresponding to (Median tumour volume of the treated group/Median tumour volume of the control group)×100. […]

Compound | melting point [°C] | TM (mean Tail Moment with respect to the TM of etoposide, taken to be unity) [1] | P388 Model Optimum T/Csurvival (%) [2] | IC50 ([3]; Homo sapiens) [nM] | further results
COc1cc(C2c3cc4c(cc3C(NC(=O)CNCCCN)C3COC(=O)C23)OCO4)cc(OC)c1O (stereo not drawn) (as salt: hydrochloride) | 219 |  |  |  | 
COc1cc(C2c3cc4c(cc3C(NC(=O)CN3CCCCC3)C3COC(=O)C23)OCO4)cc(OC)c1O (stereo not drawn) (as salt: hydrochloride) | 269 to 270 |  |  |  | 
COc1cc(C2c3cc4c(cc3C(NC(=O)CN(C)C)C3COC(=O)C23)OCO4)cc(OC)c1O (stereo not drawn) [Example 12, 2-dlmethylamino-N-[9-(4-hydroxy-3,5-dimethoxyphenyl)-8-oxo-5,5a,6,8,8a,9-hexahydrofuro[3′,4′:6,7]naphtho[2,3-d][1,3]dioxol-5-yl]acetamide] |  | 2.32 | 157 [2.5] % |  | IC50 [3]: 200 nM; Solubility in water [4]: 16 mg/mL (≈ 33 mM)
COc1cc(C2c3cc4c(cc3C(NC(=O)CNCCCCNCCCN)C3COC(=O)C23)OCO4)cc(OC)c1O (stereo not drawn) (as salt: hydrochloride) | 199 |  |  |  | 
COc1cc(C2c3cc4c(cc3C(NC(=O)CN)C3COC(=O)C23)OCO4)cc(OC)c1O (stereo not drawn) (as salt: hydrochloride) [Example 22, 2-amino-N-[9-(4-hydroxy-3,5-dimethoxyphenyl)-8-oxo-5,5a,6,8,8a,9-hexahydrofuro[3′,4′:6,7]naphtho[2,3-d][1,3]dioxol-5-yl]acetamide] | 236 |  |  |  | 
CCC1=C[C@@H]2CN(C1)Cc1c([nH]c3ccccc13)[C@@](C(=O)OC)(c1cc3c(cc1OC)N(C)[C@H]1[C@@](O)(C(=O)OC)[C@H](OC(C)=O)[C@]4(CC)C=CCN5CC[C@]31[C@@H]54)C2 [Vinorelbine, reference compound] |  | 0 |  | 3.7 | 
COc1cc(C2c3cc4c(cc3C(NC(=O)CN)C3COC(=O)C23)OCO4)cc(OC)c1O (stereo not drawn) [Example 22, 2-amino-N-[9-(4-hydroxy-3,5-dimethoxyphenyl)-8-oxo-5,5a,6,8,8a,9-hexahydrofuro[3′,4′:6,7]naphtho[2,3-d][1,3]dioxol-5-yl]acetamide] |  | 3.89 |  | 1000 | 
COc1cc(C2c3cc4c(cc3C(NC(=O)CNCCCNCCCCN)C3COC(=O)C23)OCO4)cc(OC)c1O (stereo not drawn) (as salt: hydrochloride) [Example 31, 2-[3-(4-aminobutylamino)propylamino]-N-[9-(4-hydroxy-3,5-dimethoxyphenyl)-8-oxo-5,5a,6,8,8a,9-hexahydrofuro[3′,4′:6,7]naphtho[2,3-d][1,3]dioxol-5-yl]acetamide] | 255 |  |  |  | 
COc1cc(C2c3cc4c(cc3C(NC(=O)CNCCCNCCCCNCCCN)C3COC(=O)C23)OCO4)cc(OC)c1OC (stereo not drawn) (as salt: hydrochloride) | 209 |  |  |  | 
COc1cc(C2c3cc4c(cc3C(NC(=O)CNCCCNCCCCNCCCN)C3COC(=O)C23)OCO4)cc(OC)c1O (stereo not drawn) [Example 27, 2-{3-[4-(3-aminopropylamino)butylamino]propylamino}-N-[9-(4-hydroxy-3,5-dimethoxyphenyl)-8-oxo-5,5a,6,8,8a,9-hexahydrofuro[3′,4′:6,7]naphtho[2,3-d][1,3]dioxol-5-yl]acetamide] |  | 1.22 | 129 [7.5] % | 200 | effect on the tumour (in words) ([5]; MX-1, treatment of 2.5 mg/kg): complete eradication of the tumour; solubility [4]: 50 mg/mL (≈ 77.9 mM)
COc1cc(C2c3cc4c(cc3C(NC(=O)CNCCN(C)C)C3COC(=O)C23)OCO4)cc(OC)c1O (stereo not drawn) [Example 9, 2-(2-dimethylaminoethylamino)-N-[9-(4-hydroxy-3,5-dimethoxyphenyl)-8-oxo-5,5a,6,8,8a,9-hexahydrofuro[3′,4′:6,7]naphtho[2,3-d][1,3]dioxol-5-yl]acetamide] |  | 2.81 | 157 [10] % | 6000 | solubility [4]: 100 mg/mL (≈ 190 mM)
COc1cc(C2c3cc4c(cc3C(NC(=O)CNCCCCN)C3COC(=O)C23)OCO4)cc(OC)c1O (stereo not drawn) [Example 25, 2-(4-aminobutylamino)-N-[9-(4-hydroxy-3,5-dimethoxyphenyl)-8-oxo-5,5a,6,8,8a,9-hexahydrofuro[3′,4′:6,7]naphtho[2,3-d][1,3]dioxol-5-yl]acetamide] |  | 1.09 | 129 [10] % | 80 | B16 Model Optimum T/Cvolume (%) [6]: 25% and 25 [20] %; MX-1 Model Optimum T/Cvolume (%) ([5]; Swiss Nude mice, s.c. MX-1, intraperitoneal on day 7, 9, 11, 14, 16 and 18, dose (mg/kg) in brackets): 51% and 51 [10] %; solubility [4]: 100 mg/mL (≈ 190 mM)
COc1cc(C2c3cc4c(cc3C(NC(=O)CNCCN)C3COC(=O)C23)OCO4)cc(OC)c1O (stereo not drawn) (as salt: hydrochloride) | 236 |  |  |  | 
